Source: patent publication US20240238268A1, “TREATMENTS AND METHODS FOR TREATING ALZHEIMER'S DISEASE” (Board of Supervisors of Louisiana State University and …, priority 2021, published 2024)

Experiments:
Assay type in all cases: in vivo, mouse
[1] = tested on: nNOS; assay: nNOS protein level in brain, capillary-phoresis; details: treated 3xTg-AD mice; control = 100%
Description: Capillary-phoresis immunoassay via ProteinSimple®: Quantification of all protein targets was achieved using Simple Western analysis in a Jess™ apparatus per the manufacturer's protocol (ProteinSimple, Bio-techne, Minneapolis, MN). Protein was extracted from dissected tissue in an extraction buffer consisting of T-PER® Tissue Protein Extraction Reagent (Cat. No. 78510, Thermo Fischer Scientific, Waltham, MA) and Halt™ Protease Inhibitor Cocktail (Cat. No. 87785, Thermo Fischer Scientific, Waltham, MA). Following homogenization and centrifugation (10,000×g, 5 min, 4° C.), protein concentration was determined in tissue protein supernatant samples using DC Protein Assay (Cat. No. 5000112, Bio-Rad Laboratories, Hercules, California) according to manufacturer instructions. […] Antibody diluent (ProteinSimple, Bio-techne, Minneapolis, MN) was used for all antibody dilutions as follows: PRMT4 (1:50, RRID: AB_2068436), PRMT6 (1:100, Cell Signaling Technology cat. 14641), eNOS (1:200, RRID: AB_10850618), nNOS (1:100, RRID: AB_2152488), iNOS (1:100, RRID: AB_10000625), DDAH2 (1:50, RRID: AB_2640442) Antibodies were detected using HRP-conjugated secondary anti-rabbit, and -mouse. Relative protein levels were calculated by measuring the area under the peak of a chemiluminescent chromatogram and normalized to total capillary chemiluminescence for a given sample. […]

[2] = tested on: GFAP; assay: GFAP protein level in brain, capillary-based immunoassay; details: aged 3xTg-AD female mice; TP-064 30 mg/kg, 7 days, IP or PRMT4-AAV
Protocol: (§1) Leukocytes velocity measurements were performed by linescans (512 lines/sec). *p<0.05 compared to aged 3xTg-AD male or C57 female evaluated by unpaired t-test. FIGS. 18A and 18B are capillary-based immunoassay and associated graphs showing PRMT4 inhibitor (TP-064) or AAV knockdown of PRMT4 reduced GFAP levels in aged 3xTg-AD female mice. Glial fibrillary acidic protein (GFAP, 55 kDa) was increased in aged 3xTg-AD female mice v. C57, which indicates neuroinflammation, but reversed with TP-064 (30 mg/kg, 7 days, IP) or PRMT4-AAV treatment in cortex, shown in FIG. 18A, and hippocampus, shown in FIG. 18B. Protein level was measured by capillary-based immunoassay and normalized to total protein. *p<0.05 as compared to C57, #p<0.05 v. 3xTg-AD evaluated by one-way ANOVA with Tukey's post-hoc analyses.
Capillary-phoresis immunoassay via ProteinSimple®: Quantification of all protein targets was achieved using Simple Western analysis in a Jess™ apparatus per the manufacturer's protocol (ProteinSimple, Bio-techne, Minneapolis, MN). […] Following homogenization and centrifugation (10,000×g, 5 min, 4° C.), protein concentration was determined in tissue protein supernatant samples using DC Protein Assay (Cat. No. 5000112, Bio-Rad Laboratories, Hercules, California) according to manufacturer instructions. […]

[3] = tested on: aged 3xTg-AD female mice; assay: Novel Object Recognition
Protocol: FIGS. 20A and 20B are two graphs showing PRMT4 inhibitor (TP-064) or AAV knockdown of PRMT4 improved functional learning/memory in aged 3xTg-AD female mice. […] C57 but increased with administration of TP-064 (30 mg/kg, 7 days, IP). In FIG. 20B, in Novel Object Recognition, aged 3xTg-AD female mice had fewer number of entries in the novel zone v. C57. Treatment with TP-064 or brain-specific AAV knockdown of PRMT4 increased the number of entries. T-maze and novel object recognition test were utilized to analyze working/short-term and reference/long-term memory, respectively. * p<0.05 v. C57 via one-way ANOVA with Tukey's post-hoc analyses.

[4] = tested on: aged 3xTg-AD female mice; assay: Leukocyte rolling velocity, two-photon laser scanning microscopy
Protocol: FIGS. 17A-17D show leukocyte rolling velocity was reduced in aged 3xTg-AD female mice.
as §1

[5] = tested on: C57 mice; assay: Neurovascular coupling: microvessel diameter, two-photon laser scanning microscopy, C57 mice; details: decreased PRMT4 via TP-064/PRMT4-AAV
[6] = tested on: ICAM-1; assay: ICAM-1 level, protein chip assay; details: aged 3xTg-AD female mice; cortex and hippocampus; 30 mg/kg, 7 days, IP
Protocol: FIGS. 19A-19F are six graphs showing PRMT4 inhibitor (TP-064) reduced ICAM-1, VCAM-1 and enhanced E-Cadherin protein levels in aged female 3xTg-AD mice. In FIGS. 19A-19D, aged 3xTg-AD female mice v. […] Adhesion molecules were assessed via protein chip assay in the cortex and hippocampus. * p<0.05 evaluated by one-way ANOVA with Tukey's post-hoc analyses.

**Q.** For `CNCCN1CCC(c2cc(CN(C)C(=O)c3cccc(Oc4ccccc4)c3)ccn2)CC1` [TP-064, N-Methyl-N-((2-(1-(2-(methylamino)ethyl)piperidin-4-yl)pyridin-4-yl)methyl)-3-phenoxybenzamide], which “nNOS level in cortical lysates” value [1] is on record?
**A.** 40.3%±2.88

**Q.** And the “nNOS level in hippocampal lysates” value [1]?
**A.** 133%±8.15

**Q.** What about the “GFAP level in cortex” value [2] of the same compound?
**A.** reduced

**Q.** And the “GFAP level in hippocampus” value [2]?
**A.** reduced

**Q.** And the “number of entries in the novel zone” value [3]?
**A.** increased

**Q.** What about the leukocyte rolling velocity [4] of the same compound?
**A.** increased

**Q.** What about the vascular diameters [5] of the same compound?
**A.** did not affect

**Q.** And the ICAM-1 level [6]?
**A.** decreased
